According to patent US8088818B2, “Catechol-based derivatives for treating or preventing diabetics” (National Taiwan University, priority 2006, dated 2012):

Legend:
Format in all cases: in vivo, rat
[1] = tested on: Insulin; assay: Insulin concentration before and after oral administration
Text: However, it is also observed that the dominant effect for reducing the blood sugar on the type I diabetic rats, which are incapable of secreting insulin.

[2] = tested on: Type 2 diabetic rats; assay: Blood sugar lowering in insulin-induced type 2 diabetic rats after oral administration
Procedure: (c) Insulin-induced type 2 diabetic rats: the abdominal cavity of the male Wistar rats of 12 weeks age are injected with 0.5 IU/kg long-term insulin (MonotardR HM) three times a day for fourteen days. Then, the 10 mg/kg tolbutamide, an anti-diabetic drug of sulfonylurea class, is injected into the abdominal cavity. Phlebotomize 0.1 ml blood respectively at the preadministration and the postadministration of sixty minutes, and calculate the reduced value of the blood sugar. If the variation of the ability of lowering blood sugar is less than 10%, which is deemed as the type II (insulin resistance) diabetes rat.
(§1) (d) The administration: Dissolve the medicine equivalently in deionized water, and then administrate the mentioned solution into the normal and diabetic rats by an orally perfusion. Keep with the desired concentration of the perfusion amount by taking suitable amount of the medicine solution according to the weight of the different animal.
(§2) The rats to be experimented should undergo a starvation for 8-12 hours overnight. Next day, the rats are anesthetized with 30 mg/kg pentobarbital by injecting into the abdominal cavity. After the rats fall asleep, fix the rats on the board with the rubber band. Open the groin, find the veins, bleed 0.1 ml blood from an empty stomach, and then feed the medicine into the body of the rats by taking orally. After 90 minutes, bleed and perform a centrifugation (13,000 rpm, 5 minutes) to separate the serum and the plasma. Take the 10 μl supernatant of the serum and add 1 ml reagent of the glucose kit thereinto by gently mixing. React for 5 minutes at 37 °C, followed by detecting the value of the blood sugar by means of BST330 based on the different absorption level. […] The value of the blood sugar (mg/dL) is calculated by comparing the level of redness with contrasting the standard curve.
(§3) (The value of blood sugar at postadministration)−(The value of blood sugar at preadministration)/(The value of blood sugar at preadministration)×100%

[3] = tested on: type I diabetic rats; assay: Safety evaluation: survival rate of type I diabetic rats; conditions: for Survival rate (%) of rats: p.o., after seven days
Procedure: Table 13 is a safety evaluation, wherein the type I diabetic rats are respectively orally administrated with the compound 370G at the dosage of 10 mg/kg and 30 mg/kg.

[4] = tested on: Normal rats; assay: Blood sugar lowering in normal rats after oral administration
Procedure: (a) Male Wistar rats are provided from the National Laboratory Animal Breeding and Research Center (Taipei, Taiwan), each of whose weight is about 200-250 grams, and the average age thereof is above 8 weeks. They were housed under conditions of constant temperature (25±1[…]) and controlled illumination (light time and dark time are respectively 12 hours). Food and water were available.
as §1, §2, §3
The results of the experiments are presented in the average value±the standard error (mean±SE), and the variations therebetween are evaluated according to the Student's t-test, while the variations thereamong are evaluated according to one-way ANOVA and Bonferroni's t-test, wherein P<0.05 is deemed to have apparent differences.

[5] = tested on: rats; assay: Intravenous glucose tolerance test (IGTT); conditions: oral 0.5 mg/ml/kg; 1000 mg/kg glucose intravenous, 30 minutes

With `O=C(/C=C/c1ccc(O)c(O)c1)NCCc1ccccc1` [370G (45)] the “Insulin, Post-treatment (30 min)” value ([1]; 1 mg/kg, p.o., post-treatment (30 min)) was 14.9 ± 3.4 μIU/ml, the “Insulin, Pre-treatment” value ([1]; 1 mg/kg, p.o., pre-treatment (baseline)) was 7.7 ± 1.0 μIU/ml and the “secretion of insulin (in words)” value ([1]; oral 1.0 mg/kg, in 60 minutes) was “increased”. For the same compound, the “% decrease in plasma glucose” value ([2]; type 2 diabetic rats, 0.05 mg/kg oral, 90 min) was 7.4 ± 2.6%, the “% decrease in plasma glucose” value ([2]; type 2 diabetic rats, 0.1 mg/kg oral, 90 min) was 17.2 ± 2.6 % and the “% decrease in plasma glucose” value ([2]; type 2 diabetic rats, 0.5 mg/kg oral, 90 min) was 20.1 ± 3.4 %. For the same compound, the “% decrease in plasma glucose” value ([2]; type 2 diabetic rats, 1.0 mg/kg oral, 90 min) was 23.3 ± 3.3 %, the “% decrease in plasma glucose” value ([2]; type II diabetic rats, 0.5 mg/kg, p.o., 90 minutes) was 20.0 ± 7.7% and the “reducing the blood sugar (in words)” value ([2]; type II diabetics rats, oral 0.05 to 1.0 mg/kg) was “phenomenon of reducing the blood sugar are shown”. For the same compound, the “Survival rate (%) of rats” value ([3]; 10 mg/kg) was 100%, the “Survival rate (%) of rats” value ([3]; 30 mg/kg) was 100% and the “effect on survival rate (in words)” value ([3]; oral 10 mg/kg and 30 mg/kg, seven days) was “do not affect the survival rate”. The “% decrease in plasma glucose” value ([4]; 0.5 mg/kg oral, Table 14) was 32.8 ± 3.4 %, the “Post-treatment Plasma glucose” value ([4]; 0.5 mg/kg oral, post-treatment) was 81.0 ± 5.7 mg/dL and the “Pre-treatment Plasma glucose” value ([4]; 0.5 mg/kg oral, pre-treatment (baseline)) was 120.5 ± 5.3 mg/dL. The “effect for reducing the blood sugar, compared among rat models” value ([4]; normal rat) was “strongest effect”, the “% decrease in plasma glucose” value ([4]; normal rats, 0.01 mg/kg oral, 90 min) was 11.4 ± 3.1% and the “% decrease in plasma glucose” value ([4]; normal rats, 0.05 mg/kg oral, 90 min) was 32.0 ± 1.1 %. For the same compound, the “% decrease in plasma glucose” value ([4]; normal rats, 0.1 mg/kg oral, 90 min) was 32.9 ± 2.3 %, the “% decrease in plasma glucose” value ([4]; normal rats, 0.5 mg/kg oral, 90 min) was 32.8 ± 3.4 % and the “% decrease in plasma glucose” value ([4]; normal rats, 1.0 mg/kg oral, 90 min) was 29.5 ± 1.7 %. For the same compound, the “reducing the blood sugar (in words)” value ([4]; normal rats, oral 0.05 to 1.0 mg/kg) was “phenomenon of reducing the blood sugar are shown” and the “glucose availability in IGTT versus control” value [5] was “raised”.
